In patent publication US8951752B2, “N-demethyase genes and uses thereof” (priority 2011, dated 2015):
Where “and” joins values, the source holds several entries; their conditions need not be identical. Identical values can stand only once. Like-named read-outs stand apart in the source and are kept apart here.

Legend:
NdmA-His6 = molecular target: T1, NdmA-His6 (Pseudomonas putida, UniProt H9N289); test: Methylxanthine N-demethylase assay and kinetics, NdmA-His6 with His6-NdmD; format: biochemical, Pseudomonas putida CBB5
T1 construct: made in house; host or cells: E. coli BL21(DE3)
T1 sequence (H9N289 1-351): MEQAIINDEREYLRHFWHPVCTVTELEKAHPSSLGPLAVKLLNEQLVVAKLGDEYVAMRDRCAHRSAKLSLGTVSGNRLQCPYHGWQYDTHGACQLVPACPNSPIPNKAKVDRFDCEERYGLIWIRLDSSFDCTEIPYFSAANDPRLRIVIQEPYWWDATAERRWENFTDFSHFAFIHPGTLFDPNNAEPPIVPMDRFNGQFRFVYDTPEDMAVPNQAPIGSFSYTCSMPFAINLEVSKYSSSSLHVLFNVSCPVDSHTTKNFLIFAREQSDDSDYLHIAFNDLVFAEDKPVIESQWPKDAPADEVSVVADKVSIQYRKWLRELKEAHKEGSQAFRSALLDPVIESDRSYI
Method: (§1) Methylxanthine N-demethylase activity assay contained, in 1-ml total volume, 0.5 mM methylxanthine, 1 mM NADH, 50 μM Fe(NH4)2(SO4)2, and an appropriate amount of NdmA-His6 or NdmB-His6 (7.4 μg-2.5 mg protein depending on substrate specificity) in 50 mM KPi buffer (pH 7.5). Approximately 4 U of partially purified reductase, prepared as described previously (Summers et al., 2011) or 59 U of purified His6-NdmD was added to reaction mixture. Catalase from bovine liver (4,000 U) was also added to reactions containing His6-NdmD. The reaction mixture was incubated at 30° C. with 300 rpm shaking on an incubating microplate shaker (VWR, Radnor, Pa.). Periodically, a small aliquot was sampled from the reaction mixture and mixed with equal volume of acetonitrile for quantifying concentrations of methylxanthines and N-demethylated products by HPLC. One unit of N-demethylase activity was defined as the consumption of one […] methylxanthine per minute.
(§2) Apparent kinetic parameters of NdmA-His6 and NdmB-His6 were determined by measuring the initial rate of disappearance (vo) of methylxanthines in 50 mM KPi buffer (pH 7.5) at 30° C. The initial substrate concentrations (ESI) used in these experiments were from 25 to 500 μM. Substrates were incubated with His6-NdmD plus either NdmA-His6 or NdmB-His6 under standard conditions for 15 minutes. At 1, 5, 10, and 15 minutes, samples were removed from the reaction mixtures to quantitate substrate concentrations by HPLC. Plots of substrate concentrations against time were used to determine the initial rates of disappearance of substrates which were linear over 15 minutes. The apparent kinetic parameters were determined from Michaelis-Menten plots of vo against [S] fitted with the equation

NdmB-His6 = molecular target: T2, NdmB-His6 (Pseudomonas putida, UniProt H9N290); test: Methylxanthine N-demethylase assay and kinetics, NdmB-His6 with His6-NdmD; format: biochemical, Pseudomonas putida CBB5; details: for N-demethylase activity: NdmB; for Km: 30° C., pH 7.5, ∞ where no activity
T2 construct: made in house; host or cells: E. coli BL21(DE3)
T2 sequence (H9N290 1-355): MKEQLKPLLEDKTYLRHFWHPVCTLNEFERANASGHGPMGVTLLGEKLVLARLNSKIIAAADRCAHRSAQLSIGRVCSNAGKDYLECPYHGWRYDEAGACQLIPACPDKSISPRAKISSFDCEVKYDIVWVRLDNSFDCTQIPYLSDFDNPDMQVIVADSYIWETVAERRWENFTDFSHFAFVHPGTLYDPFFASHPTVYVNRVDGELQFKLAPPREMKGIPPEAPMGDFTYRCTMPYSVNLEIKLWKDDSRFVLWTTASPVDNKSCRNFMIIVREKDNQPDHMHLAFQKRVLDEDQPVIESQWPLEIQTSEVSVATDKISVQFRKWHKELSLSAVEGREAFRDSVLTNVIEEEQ
Method: as §1, §2

[1] = molecular target: T3, N-demethylase (Ndm: NdmA and NdmB subunits) (Pseudomonas putida, UniProt H9N289+H9N290); test: Methylxanthine N-demethylase activity assay with purified Ndm plus partially purified Ccr; format: biochemical, Pseudomonas putida CBB5; details: for Products identified: same products at 500 and 200 μM substrate; for Relative N-demethylase activity: relative to paraxanthine; for O-demethylation by Ndm: prolonged incubation
T3 construct: lane 3, natural Ndm purified from P. putida CBB5; made in house; host or cells: purified from the natural strain Pseudomonas putida CBB5 (DEAE, Phenyl and Q Sepharose); not recombinant
T3 sequence (H9N289 1-351): T1 sequence (H9N289 1-351)
T3 sequence (H9N290 1-355): T2 sequence (H9N290 1-355)
Method: Methylxanthine N-demethylase activity assay contained, in 1-mL total volume, 0.5 mM methylxanthine, 1 mM NADH, 50 μM Fe(NH4)2(SO4)2, and an appropriate amount of Ndm (0.08-7.5 mg protein, depending on purity of the protein) in 50 mM KPi buffer. Approximately 4 U of partially purified Ccr was added to reaction mixture when assaying Ndm in Phenyl Sepharose and Q Sepharose eluant-fractions (Ccr was not added to the enzyme reaction mixture when assaying Ndm activity in DEAE Sepharose eluant-fractions because Ccr co-eluted with Ndm). The reaction mixture was incubated at 30° C. with 300 rpm shaking on an incubating microplate shaker (VWR). Periodically, a small aliquot was sampled from the reaction mixture and mixed with equal volume of acetonitrile for quantifying concentrations of methylxanthines and N-demethylated products by HPLC. One unit of N-demethylase activity was defined as the consumption of one μmole methylxanthine per minute. When Ndm was coupled with the reductase and ferredoxin components of naphthalene dioxygenase of Pseudomonas sp. strain 9816 (Haigler & Gibson, 1990a; Haigler & Gibson, 1990b), 30 and 100 μg of the respective proteins were used. Spinach ferredoxin reductase and ferredoxin were also substituted for Ccr as described by Subramanian et al. (1979).
Determination of Kinetic Parameters. Apparent kinetic parameters of Ndm were determined by measuring the initial rate of disappearance (vo) of paraxanthine or 7-methylxanthine in 50 mM KPi buffer (pH 7.5) at 30° C. The paraxanthine and 7-methylxanthine concentrations ([S]) used in these experiments were from 20 to 500 μM. Substrates were incubated with Ndm and Ccr under standard conditions for 15 minutes. At 1, 5, 10, and 15 minutes, samples were removed from the reaction mixtures to quantitate substrate concentrations by HPLC. Plots of substrate concentrations against time were used to determine the initial rates of disappearance of substrates which were linear over 15 minutes. The apparent kinetic parameters were determined from Michaelis-Menten plots of Vo against [S] fitted with the equation
Determination of Oxygen Requirement. Oxygen consumption by Ndm during N-demethylation of paraxanthine was determined in a closed reaction vessel equipped with a Clarke-type oxygen electrode (Digitial Modell 0, Rank Brothers Ltd., Cambridge, England). The electrode was calibrated by using glucose oxidase (Sigma) and glucose for consumption of oxygen. Ndm activity assay was performed at 30° C. in a total volume of 1 ml of air-saturated 50 mM KPi buffer (pH 7.5) with 100 μM paraxanthine, 200 μM NADH, 50 μM Fe(NH4)2(SO4)2, 0.2 mg purified Ndm, and 4 U partially purified Ccr. The reaction was initiated by adding Ndm and partially purified Ccr after equilibration of all other reaction components for 3.3 minutes. After 13 minutes, a 100-μL aliquot was withdrawn from the reaction, immediately mixed with equal volume of acetonitrile to stop the enzyme reaction, and analyzed for N-demethylation product by HPLC. Background oxygen consumption, possibly due to NADH oxidase enzyme activity in the partially purified Ccr, was quantitated in control reactions containing all reaction components except paraxanthine.
Formaldehyde Determination. […] Twenty μL Nash reagent was added to 50 μl Ndm reaction sample plus 50 μl acetonitrile. This mixture was incubated at 51° C. for 12 minutes.

[2] = tested on: cell extracts prepared from P. putida CBB5; test: NADH-dependent N-demethylase activity of CBB5 cell extracts; format: biochemical, Pseudomonas putida CBB5; details: 0.5 mM substrate, 7.2 mg mL^−1 protein
[3] = molecular target: T4, Caffeine dehydrogenase (Cdh) from CBB1 (Pseudomonas sp., UniProt D7REY3); details: cited from earlier work
T4 sequence (D7REY3 1-791): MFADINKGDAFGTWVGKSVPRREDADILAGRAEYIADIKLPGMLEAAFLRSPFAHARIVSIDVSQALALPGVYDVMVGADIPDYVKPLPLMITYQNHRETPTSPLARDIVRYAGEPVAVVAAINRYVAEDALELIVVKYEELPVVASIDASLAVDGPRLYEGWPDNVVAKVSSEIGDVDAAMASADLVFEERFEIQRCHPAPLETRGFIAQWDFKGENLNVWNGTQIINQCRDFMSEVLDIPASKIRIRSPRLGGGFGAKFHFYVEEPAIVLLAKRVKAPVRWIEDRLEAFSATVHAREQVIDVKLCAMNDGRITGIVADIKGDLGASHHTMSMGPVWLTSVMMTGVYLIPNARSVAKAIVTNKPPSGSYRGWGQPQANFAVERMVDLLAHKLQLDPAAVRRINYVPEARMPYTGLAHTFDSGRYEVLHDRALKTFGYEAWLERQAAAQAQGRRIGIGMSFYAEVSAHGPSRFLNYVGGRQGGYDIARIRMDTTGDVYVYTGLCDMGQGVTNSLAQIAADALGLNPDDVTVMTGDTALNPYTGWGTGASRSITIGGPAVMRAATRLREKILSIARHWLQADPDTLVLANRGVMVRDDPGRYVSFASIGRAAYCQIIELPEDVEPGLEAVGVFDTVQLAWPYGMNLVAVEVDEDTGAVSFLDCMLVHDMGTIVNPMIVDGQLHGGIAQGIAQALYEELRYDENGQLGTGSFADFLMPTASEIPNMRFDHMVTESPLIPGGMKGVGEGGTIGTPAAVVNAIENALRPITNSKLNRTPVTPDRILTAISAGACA
T4 sequence (D7REY4 1-295 partner): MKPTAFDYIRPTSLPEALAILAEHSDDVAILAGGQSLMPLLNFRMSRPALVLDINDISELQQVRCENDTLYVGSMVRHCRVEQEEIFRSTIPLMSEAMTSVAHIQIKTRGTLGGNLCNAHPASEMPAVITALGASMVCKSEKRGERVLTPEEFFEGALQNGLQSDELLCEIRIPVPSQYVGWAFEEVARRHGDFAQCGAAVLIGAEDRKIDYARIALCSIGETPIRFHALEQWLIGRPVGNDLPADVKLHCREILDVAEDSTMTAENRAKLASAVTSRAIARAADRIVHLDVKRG
T4 sequence (D7REY5 1-167 partner): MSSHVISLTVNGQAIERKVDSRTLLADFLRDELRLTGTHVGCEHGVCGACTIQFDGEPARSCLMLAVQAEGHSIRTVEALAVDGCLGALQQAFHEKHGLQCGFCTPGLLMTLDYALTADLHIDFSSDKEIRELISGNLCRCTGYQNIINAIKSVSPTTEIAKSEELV

[4] = 100 μM paraxanthine, 0.2 mg Ndm, 4 U Ccr, after 13 minutes

Cn1c(=O)[nH]c2nc[nH]c2c1=O [1-methylxanthine]
catalytic efficiency relative to theophylline (NdmA-His6; NdmA): two orders of magnitude lower | Product (NdmA-His6; NdmA-His6): Xanthine | N-demethylase activity (NdmB-His6): no activity | Km (NdmB-His6; NdmB-His6): ∞

Cn1c(=O)[nH]c(=O)c2[nH]cnc21 [3-Methylxanthine, 3-methylxanthine]
Products identified [1]: xanthine | Relative N-demethylase activity ([1]; substrate conc. 200 μM): 68.9 ± 2.6 | Relative N-demethylase activity ([1]; substrate conc. 500 μM): 55.2 ± 6.0 | N-demethylase activity (NdmA-His6; NdmA): inactive | Km (NdmA-His6; NdmA-His6, 30° C., pH 7.5, ∞ where no activity): ∞ | Product (NdmB-His6; NdmB-His6): Xanthine

Cn1c(=O)[nH]c2ncn(C)c2c1=O [Paraxanthine, 1,7-dimethylxanthine]
oxygen consumed during N-demethylation [1, 4]: 79.5 µM | paraxanthine N-demethylated [1, 4]: 60.2 µM | Products identified [1]: xanthine and 7-methylxanthine, | Relative N-demethylase activity ([1]; substrate conc. 200 μM): 100.0 ± 3.7 | Relative N-demethylase activity ([1]; substrate conc. 500 μM): 100.0 ± 3.1 | N-demethylase activity (NdmB-His6): no activity | Km (NdmB-His6; NdmB-His6): ∞ | time to complete utilization ([2]; 0.5 mM NADH): about 20 minutes | N-demethylation by NdmC fraction (NdmC): not N-demethylated

Cn1c(=O)c2[nH]cnc2n(C)c1=O [Theophylline, 1,3-dimethylxanthine]
Products identified [1]: 1- & 3-methylxanthine, and xanthine | Relative N-demethylase activity ([1]; substrate conc. 200 μM): 14.2 ± 1.6 | Relative N-demethylase activity ([1]; substrate conc. 500 μM): 17.6 ± 1.0 | degradation rate compared with paraxanthine [2]: significantly slower | activity of Cdh [3]: no activity | activity of Cdh ([3]; substrate specificity study): 5%

COc1cc(C(=O)O)ccc1O [vanillate]
O-demethylation by Ndm [1]: did not catalyze O-demethylation

COc1cc(C=O)ccc1O [vanillin]
O-demethylation by Ndm [1]: did not catalyze O-demethylation

O=c1[nH]c(=O)c2[nH]cnc2[nH]1 [xanthine]
product formed from paraxanthine ([1]; 7.4 mU / 7.4 units of Ndm, 90 minutes): 193.7 ± 4.0 µM and 193.7 ± 14.0 µM | N-demethylation product present ([1]; from paraxanthine, after 13 minutes): ~20.3 µM | activity of Cdh [3]: no activity and none
